Measurements: the CheMixHub viscosity set

Test: xn = mol fraction of the nth substance listed

CCCCOCCOCCO + CCCO
viscosity [mPa·s], 101 kPa
Conditions	298.15 K	308.15 K	318.15 K
x1 = 0.011	1.95	1.525	1.246
x1 = 0.042	2.019	1.576	1.293
x1 = 0.074	2.098	1.633	1.337
x1 = 0.1191	2.202	1.711	1.409
x1 = 0.1629	2.325	1.802	1.488
x1 = 0.2086	2.446	1.889	1.576
x1 = 0.2587	2.587	2.024	1.669
x1 = 0.3152	2.748	2.149	1.767
x1 = 0.3289	2.787	2.179	1.795
x1 = 0.3796	2.959	2.283	1.89
x1 = 0.4568	3.213	2.435	2.034
x1 = 0.5093	3.371	2.548	2.123
x1 = 0.5833	3.615	2.714	2.263
x1 = 0.6316	3.764	2.814	2.346
x1 = 0.6882	3.928	2.932	2.442
x1 = 0.7604	4.153	3.085	2.564
x1 = 0.8285	4.361	3.228	2.677
x1 = 0.9045	4.598	3.388	2.797
x1 = 0.9511	4.734	3.481	2.875

O=S1(=O)CCCC1 + CCCO
viscosity [mPa·s], 101 kPa
Conditions	x1 = 0.0761	x1 = 0.1702	x1 = 0.2436	x1 = 0.3357	x1 = 0.4393	x1 = 0.5374	x1 = 0.6403	x1 = 0.7554	x1 = 0.8835
303.15 K	1.648	1.731	1.863	2.093	2.443	2.894	3.567	4.714	6.855
308.15 K	1.477	1.551	1.671	1.876	2.191	2.595	3.198	4.214	6.07
313.15 K	1.329	1.399	1.506	1.691	1.976	2.342	2.884	3.788	5.424

CCCCOCCOCCO + CCN(CC)CC
viscosity [mPa·s], 100 kPa
Conditions	298.15 K	303.15 K	308.15 K
x1 = 0.05083	0.4832	0.4499	0.4246
x1 = 0.1	0.6109	0.5597	0.5234
x1 = 0.15	0.7524	0.6836	0.637
x1 = 0.2	0.9081	0.8131	0.7543
x1 = 0.3	1.246	1.108	1.021
x1 = 0.3999	1.641	1.447	1.324
x1 = 0.5	2.105	1.837	1.669
x1 = 0.5999	2.629	2.278	2.067
x1 = 0.6995	3.213	2.776	2.496
x1 = 0.8	3.822	3.271	2.93
x1 = 0.8998	4.474	3.817	3.419
x1 = 0.9499	4.793	4.075	3.631

C1CC[NH2+]C1.CCCCCCCC(=O)[O-] + CCO
viscosity [mPa·s], 101 kPa
Conditions	x1 = 0.1638	x1 = 0.3038	x1 = 0.4308	x1 = 0.5046	x1 = 0.5837	x1 = 0.7453	x1 = 0.838	x1 = 0.9223
293.15 K	3.7	8.2	14	17.06	23.1	36.6	47.3	58.2
298.15 K	3.85	7.02	12.99	16.3	21.3	34.08	44.23	52.4
303.15 K	3	5.7	10.5	13.39	17.6	29.14	36.3	42.7
308.15 K	2.9	7.3	11.21	14.5	18.1	25.4	31.3	36.4
313.15 K	2.7	6.8	9.8	11.79	15	22	26.8	30.3

O=S1(=O)CCCC1 + CCO
viscosity [mPa·s], 101 kPa
Conditions	293.15 K	298.15 K	303.15 K	308.15 K	313.15 K	323.15 K
x1 = 0.06211	1.21	1.103	1.006	–	0.845	0.714
x1 = 0.068	–	–	1.008	0.9247	0.8482	–
x1 = 0.1147	–	–	1.063	0.976	0.8945	–
x1 = 0.131	1.316	1.197	1.094	–	0.919	0.778
x1 = 0.2039	1.49	1.35	1.228	–	1.031	0.875
x1 = 0.2119	–	–	1.241	1.135	1.039	–
x1 = 0.271	–	–	1.38	1.264	1.155	–
x1 = 0.283	1.734	1.57	1.421	–	1.192	1.009
x1 = 0.3691	2.087	1.883	1.699	–	1.421	1.202
x1 = 0.374	–	–	1.696	1.546	1.417	–
x1 = 0.4622	2.558	2.292	2.09	–	1.734	1.467
x1 = 0.4742	–	–	2.116	1.922	1.755	–
x1 = 0.5688	3.306	2.96	2.668	–	2.207	1.857
x1 = 0.5738	–	–	2.691	2.436	2.216	–
x1 = 0.6865	4.608	4.075	3.682	–	3.001	2.511
x1 = 0.7403	–	–	4.239	3.82	3.446	–
x1 = 0.8141	6.959	6.153	5.503	–	4.423	3.632
x1 = 0.8574	–	–	6.141	5.47	4.899	–

Cc1cccc(C)c1 + CCOC(C)=O
viscosity [mPa·s], 101 kPa
Conditions	298.15 K	308.15 K
x2 = 0.048	0.568	0.515
x2 = 0.1498	0.541	0.492
x2 = 0.2498	0.518	0.472
x2 = 0.3493	0.498	0.454
x2 = 0.4469	0.481	0.439
x2 = 0.4972	0.473	0.432
x2 = 0.5494	0.466	0.425
x2 = 0.6495	0.454	0.414
x2 = 0.7511	0.444	0.404
x2 = 0.8509	0.436	0.396
x2 = 0.9461	0.43	0.39

O=S1(=O)CCCC1 + CCOC(C)=O
303.15 K, 101 kPa
Conditions	viscosity [mPa·s]
x1 = 0.8548	5.285
x1 = 0.9799	9.205

Nc1ccccc1Cl + CCOCCO
303.15 K, 101 kPa
Conditions	viscosity [mPa·s]
x1 = 0.0966	2.088
x1 = 0.1696	2.266
x1 = 0.2725	2.507
x1 = 0.3613	2.709
x1 = 0.4791	2.967
x1 = 0.5648	3.147
x1 = 0.68	3.372
x1 = 0.7804	3.544
x1 = 0.8884	3.696

O=S1(=O)CCCC1 + CCc1ccccc1
viscosity [mPa·s]
Conditions	101 kPa	101.3 kPa
303.15 K, x2 = 0.9106	0.7155	0.7155
313.15 K, x2 = 0.7254	0.9235	–
323.15 K, x2 = 0.7254	0.8125	0.8125
323.15 K, x2 = 0.8194	0.6653	0.6653

CCCCn1cc[n+](C)c1.F[B-](F)(F)F + CN1CCCC1=O
101 kPa
Conditions	viscosity [mPa·s]
298.15 K, x1 = 0.2779	9.05
298.15 K, x1 = 0.957	86.3
303.15 K, x1 = 0.2779	7.82
303.15 K, x1 = 0.3423	9.48
308.15 K, x1 = 0.4657	9.19

CCCCCCCCCCCCCCCCCC(=O)O + CN1CCC[C@H]1c1cccnc1
viscosity [mPa·s], 101 kPa
Conditions	x2 = 0.3991	x2 = 0.4952	x2 = 0.6034	x2 = 0.6986	x2 = 0.7961	x2 = 0.8973
298.15 K	–	–	–	21.18	14.22	7.79
323.15 K	26.04	18.6	12.3	8.571	6.045	4.003

CCCCn1cc[n+](C)c1.F[B-](F)(F)F + CN(C)C=O
101.33 kPa
Conditions	viscosity [mPa·s]
293.15 K, x1 = 0.24	8.99
293.15 K, x1 = 0.83	76.67
298.15 K, x1 = 0.335	6.371
298.15 K, x1 = 0.34	8.92
298.15 K, x1 = 0.3986	7.783
298.15 K, x1 = 0.8976	78.41
298.15 K, x1 = 0.94	88.43
303.15 K, x1 = 0.43	8.05
303.15 K, x1 = 0.94	74.19
308.15 K, x1 = 0.55	9.58
